Each compound was assayed against human PDE10A2 (Homo sapiens (Human), UniProt Q9Y233) (assay: PDE10 fluorescence polarization (IMAP FP) inhibition assay). Settings: human PDE10A2, FAM-labeled cAMP substrate, read-out: PDE10A Ki.
Format: biochemical
Experimental: The activity of the compounds in accordance with the present invention as PDE10 inhibitors may be readily determined without undue experimentation using a fluorescence polarization (FP) methodology that is well known in the art (Huang, W., et al., J. Biomol Screen, 2002, 7: 215).
In a typical experiment the PDE10 inhibitory activity of the compounds of the present invention was determined in accordance with the following experimental method. PDE10A2 was amplified from human fetal brain cDNA (Clontech, Mountain View, Calif.) using a forward primer corresponding to nucleotides 56-77 of human PDE10A2 (Accession No. AF127480, Genbank Identifier 4894716), containing a Kozak consensus sequence, and a reverse primer corresponding to nucleotides 2406-2413 of human PDE10A2 (Accession No. AF127480, Genbank Identifier 4894716). Amplification with Easy-A polymerase (Stratagene, La Jolla, Calif.) was 95° C. for 2 minutes followed by thirty three cycles of 95° C. for 40 seconds, 55° C. for 30 seconds, and 72° C. for 2 minutes 48 seconds. Final extension was 72° C. for 7 minutes. The PCR product was TA cloned into pcDNA3.2-TOPO (Invitrogen, Carlsbad, Calif.) according to standard protocol. AD293 cells with 70-80% confluency were transiently transfected with human PDE10A2/pcDNA3.2-TOPO using Lipofectamine 2000 according to manufacturer specifications (Invitrogen, Carlsbad, Calif.). Cells were harvested 48 hours post-transfection and lysed by sonication (setting 3, 10×5 sec pulses) in a buffer containing 20 mM HEPES, 1 mM EDTA and protease inhibitor cocktail (Roche). Lysate was collected by centrifugation at 75,000×g for 20 minutes. Supernatant containing the cytoplasmic fraction was used for evaluation of PDE10A2 activity. The fluorescence polarization assay for cyclic nucleotide phosphodiesterases was performed using an IMAP® FP kit supplied by Molecular Devices, Sunnyvale, Calif. (product # R8139). IMAPU technology has been applied previously to phosphodiesterase assays (Huang, W., et al., J. Biomol Screen, 2002, 7: 215). Assays were performed at room temperature in 384-well microtiter plates with an incubation volume of 20.2 μL. Solutions of test compounds were prepared in DMSO and serially diluted with DMSO to yield 8 μL of each of 10 solutions differing by 3-fold in concentration, at 32 serial dilutions per plate. 100% inhibition is determined using a known PDE10 inhibitor, which can be any compound that is present at 5,000 times its Ki value in the assay described as follows, such as papaverine (see Siuciak, et al. Neuropharmacology (2006) 51:386-396; Becker, et al. Behav Brain Res (2008) 186(2):155-60; Threlfell, et al., J Pharmacol Exp Ther (2009) 328(3):785-795), 2-{4-[pyridin-4-yl-1-(2,2,2-trifluoroethyl)-1H-pyrazol-3-yl]phenoxymethyl}quinoline succinic acid or 2-[4-(1-methyl-4-pyridin-4-yl-1H-pyrazol-3-yl)-phenoxymethyl]quinoline succinic acid (see Schmidt, et al. J Pharmacol Exp Ther (2008) 325:681-690; Threlfell, et al., J Pharmacol Exp Ther (2009) 328(3): 785-795). 0% of inhibition is determined by using DMSO (1% final concentrations).
A Labcyte Echo 555 (Labcyte, Sunnyvale, Calif.) is used to dispense 200 nL from each well of the titration plate to the 384 well assay plate. A solution of enzyme (1/1600 dilution from aliquots; sufficient to produce 20% substrate conversion) and a separate solution of FAM-labeled cAMP PDE from Molecular Devices (product # R7506), at a final concentration of 50 nM are made in the assay buffer (10 mM Tris HCl, pH 7.2, 10 mM MgCl2, 0.05% NaN3 0.01% Tween-20, and 1 mM DTT). The enzyme and the substrate are then added to the assay plates in two consecutive additions of 10 μL, and then shaken to mix. The reaction is allowed to proceed at room temperature for 30 minutes. A binding solution is then made from the kit components, comprised of 80% Solution A, 20% Solution B and binding reagent at a volume of 1/600 the total binding solution.

Chain of human PDE10A2 (Q9Y233 267-1055): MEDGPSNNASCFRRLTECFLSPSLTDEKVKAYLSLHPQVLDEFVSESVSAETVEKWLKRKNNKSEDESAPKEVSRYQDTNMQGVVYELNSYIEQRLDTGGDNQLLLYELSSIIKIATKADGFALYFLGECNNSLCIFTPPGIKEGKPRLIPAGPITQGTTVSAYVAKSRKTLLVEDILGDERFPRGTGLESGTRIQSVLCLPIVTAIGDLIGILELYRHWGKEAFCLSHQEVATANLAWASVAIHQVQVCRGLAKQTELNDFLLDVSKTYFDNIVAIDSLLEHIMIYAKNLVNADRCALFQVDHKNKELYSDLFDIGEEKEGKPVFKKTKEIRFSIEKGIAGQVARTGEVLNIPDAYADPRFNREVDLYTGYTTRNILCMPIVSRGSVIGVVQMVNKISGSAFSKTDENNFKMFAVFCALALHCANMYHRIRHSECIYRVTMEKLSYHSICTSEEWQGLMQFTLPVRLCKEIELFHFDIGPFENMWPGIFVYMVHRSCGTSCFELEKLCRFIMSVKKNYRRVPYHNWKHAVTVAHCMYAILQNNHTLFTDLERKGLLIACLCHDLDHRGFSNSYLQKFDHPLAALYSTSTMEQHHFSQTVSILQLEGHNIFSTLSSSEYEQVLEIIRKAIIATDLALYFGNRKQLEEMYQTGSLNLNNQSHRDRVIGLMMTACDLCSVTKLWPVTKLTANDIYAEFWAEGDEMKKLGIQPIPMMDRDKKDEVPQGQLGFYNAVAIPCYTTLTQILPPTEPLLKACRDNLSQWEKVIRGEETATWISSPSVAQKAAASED

SMILES | Ki [nM]
COc1ccc([C@H]2C[C@@H]2COc2nc(C)ncc2-c2ccc(=O)n(OC)c2)nc1 [Example 22, 1-methoxy-5-(4-(((1S,2S)-2-(5-methoxypyridin-2-yl)cyclopropyl)methoxy)-2-methylpyrimidin-5-yl)pyridin-2(1H)-one] | 1.9
Cc1ccc([C@H]2C[C@@H]2COc2nc(C)ncc2-c2ccc(=O)n(C3CC3)c2)nc1 [Example 23, 1-cyclopropyl-5-(2-methyl-4-(((1S,2S)-2-(5-methylpyridin-2-yl)cyclopropyl)methoxy)pyrimidin-5-yl)pyridin-2(1H)-one] | 0.519
CCn1cc(-c2cnc(C)nc2OC[C@H]2C[C@@H]2c2ccc(OC)cn2)ccc1=O [Example 24, 1-ethyl-5-(4-(((1S,2S)-2-(5-methoxypyridin-2-yl)cyclopropyl)methoxy)-2-methylpyrimidin-5-yl)pyridin-2(1H)-one] | 1.07
Cc1ccc([C@H]2C[C@@H]2COc2nc(C)ncc2-c2cc(F)c(=O)n(C)c2)nc1 [Example 25, 3-fluoro-1-methyl-5-(2-methyl-4-(((1S,2S)-2-(5-methylpyridin-2-yl)cyclopropyl)methoxy)pyrimidin-5-yl)pyridin-2(1H)-one] | 1.55
COc1ccc([C@H]2C[C@@H]2COc2nc(C)ncc2-c2ccc(=O)n(C)c2C)nc1 [Example 27, 5-(4-(((1S,2S)-2-(5-methoxypyridin-2-yl)cyclopropyl)methoxy)-2-methylpyrimidin-5-yl)-1,6-dimethylpyridin-2(1H)-one] | 0.113
Cc1ccc([C@H]2C[C@@H]2COc2nc(C)ncc2-c2ccc(=O)n(C)c2)nc1 [Example 28, 1-methyl-5-(2-methyl-4-(((1S,2S)-2-(5-methylpyridin-2-yl)cyclopropyl)methoxy)pyrimidin-5-yl)pyridin-2(1H)-one] | 2.04
Cc1ncc(-c2ccc(=O)n(C)c2)c(OC[C@H]2C[C@@H]2c2ccc3ccccc3n2)n1 [Example 29, 1-methyl-5-(2-methyl-4-(((1S,2S)-2-(quinolin-2-yl)cyclopropyl)methoxy)pyrimidin-5-yl)pyridin-2(1H)-one] | 0.052
COCCn1c(C)c(-c2cnc(C)nc2OC[C@H]2C[C@@H]2c2ccc(OC)cn2)ccc1=O [Example 30, 1-(2-methoxyethyl)-5-(4-(((1S,2S)-2-(5-methoxypyridin-2-yl)cyclopropyl)methoxy)-2-methylpyrimidin-5-yl)-6-methylpyridin-2(1H)-one] | 1.46
COCCn1c(C)c(-c2cnc(C)nc2OC[C@H]2C[C@@H]2c2ccc3ccccc3n2)ccc1=O [Example 31, 1-(2-methoxyethyl)-6-methyl-5-(2-methyl-4-(((1S,2S)-2-(quinolin-2-yl)cyclopropyl)methoxy)pyrimidin-5-yl)pyridin-2(1H)-one] | 0.045
CCn1cc(-c2cnc(C)nc2OC[C@H]2C[C@@H]2c2ccc3ccccc3n2)ccc1=O [Example 32, 1-ethyl-5-(2-methyl-4-(((1S,2S)-2-(quinolin-2-yl)cyclopropyl)methoxy)pyrimidin-5-yl)pyridin-2(1H)-one] | 0.024
CCn1c(C)c(-c2cnc(C)nc2OC[C@H]2C[C@@H]2c2ccc(OC)cn2)ccc1=O [Example 33, 1-ethyl-5-(4-(((1S,2S)-2-(5-methoxypyridin-2-yl)cyclopropyl)methoxy)-2-methylpyrimidin-5-yl)-6-methylpyridin-2(1H)-one] | 1.78
Cc1ncc(-c2ccc(=O)n(C)c2C)c(OC[C@H]2C[C@@H]2c2ccc3ccccc3n2)n1 [Example 34, 1,6-dimethyl-5-(2-methyl-4-(((1S,2S)-2-(quinolin-2-yl)cyclopropyl)methoxy)pyrimidin-5-yl)pyridin-2(1H)-one] | 0.006
CCn1cc(-c2cnc(C)nc2OC[C@H]2C[C@@H]2c2ccc(OC)cn2)cc(C)c1=O [Example 35, 1-ethyl-5-(4-(((1S,2S)-2-(5-methoxypyridin-2-yl)cyclopropyl)methoxy)-2-methylpyrimidin-5-yl)-3-methylpyridin-2(1H)-one] | 0.381
CCn1c(C)c(-c2cnc(C)nc2OC[C@H]2C[C@@H]2c2ccc3ccccc3n2)ccc1=O [Example 36, 1-ethyl-6-methyl-5-(2-methyl-4-(((1S,2S)-2-(quinolin-2-yl)cyclopropyl)methoxy)pyrimidin-5-yl)pyridin-2(1H)-one] | 0.045
Cc1ccc([C@H]2C[C@@H]2COc2nc(C)ncc2-c2ccc(=O)n(C(C)C)c2C)nc1 [Example 37, 1-isopropyl-6-methyl-5-(2-methyl-4-(((1S,2S)-2-(5-methylpyridin-2-yl)cyclopropyl)methoxy)pyrimidin-5-yl)pyridin-2(1H)-one] | 4.27
COc1ccc([C@H]2C[C@@H]2COc2nc(C)ncc2-c2cc(C)c(=O)n(C)c2)nc1 [Example 38, 5-(4-(((1S,2S)-2-(5-methoxypyridin-2-yl)cyclopropyl)methoxy)-2-methylpyrimidin-5-yl)-1,3-dimethylpyridin-2(1H)-one] | 0.727
COCCn1cc(-c2cnc(C)nc2OC[C@H]2C[C@@H]2c2ccc(OC)cn2)ccc1=O [Example 39, 1-(2-methoxyethyl)-5-(4-(((1S,2S)-2-(5-methoxypyridin-2-yl)cyclopropyl)methoxy)-2-methylpyrimidin-5-yl)pyridin-2(1H)-one] | 0.821
Cc1ccc([C@H]2C[C@@H]2COc2nc(C)ncc2-c2cc(C)c(=O)n(C)c2)nc1 [Example 40, 1,3-dimethyl-5-(2-methyl-4-(((1S,2S)-2-(5-methylpyridin-2-yl)cyclopropyl)methoxy)pyrimidin-5-yl)pyridin-2(1H)-one] | 0.409
CCn1cc(-c2cnc(C)nc2OC[C@H]2C[C@@H]2c2ccc(C)cn2)cc(C)c1=O [Example 41, 1-ethyl-3-methyl-5-(2-methyl-4-(((1S,2S)-2-(5-methylpyridin-2-yl)cyclopropyl)methoxy)pyrimidin-5-yl)pyridin-2(1H)-one] | 0.533
Cc1ncc(-c2ccc(=O)n(C)c2)c(OC[C@H]2C[C@@H]2c2ccc3c(n2)CCC3)n1 [Example 42, 5-(4-(((1S,2S)-2-(6,7-dihydro-5H-cyclopenta[b]pyridin-2-yl)cyclopropyl)methoxy)-2-methylpyrimidin-5-yl)-1-methylpyridin-2(1H)-one] | 0.531
Cc1ccc([C@H]2C[C@@H]2COc2nc(C)ncc2-c2ccc(=O)n(CC(F)F)c2)nc1 [Example 43, 1-(2,2-difluoroethyl)-5-(2-methyl-4-(((1S,2S)-2-(5-methylpyridin-2-yl)cyclopropyl)methoxy)pyrimidin-5-yl)pyridin-2(1H)-one] | 2.56
COc1ccc([C@H]2C[C@@H]2COc2nc(C)ncc2-c2ccc(=O)n(CC(F)F)c2)nc1 [Example 44, 1-(2,2-difluoroethyl)-5-(4-(((1S,2S)-2-(5-methoxypyridin-2-yl)cyclopropyl)methoxy)-2-methylpyrimidin-5-yl)pyridin-2(1H)-one] | 2.3
COc1ccc([C@H]2C[C@@H]2COc2nc(C)ncc2-c2ccc(=O)n(CCC#N)c2)nc1 [Example 45, 3-(5-(4-(((1S,2S)-2-(5-methoxypyridin-2-yl)cyclopropyl)methoxy)-2-methylpyrimidin-5-yl)-2-oxopyridin-1(2H)-yl)propanenitrile] | 1.78
Cc1ccc([C@H]2C[C@@H]2COc2nc(C)ncc2-c2ccc(=O)n(CCC#N)c2)nc1 [Example 46, 3-(5-(2-methyl-4-(((1S,2S)-2-(5-methylpyridin-2-yl)cyclopropyl)methoxy)pyrimidin-5-yl)-2-oxopyridin-1(2H)-yl)propanenitrile] | 2.15
